# Laboratory results taken from patent publication US10301259B2, “Beta-cryptoxanthin from plant source and a process for its preparation” (OMNIACTIVE HEALTH TECHNOLOGIES LIMITED, priority 2013, dated 2019).
# Experiments:
# [1] = system: OVX rat model; assay: Anti-resorptive / anti-osteoporotic activity in OVX rat model (overall conclusions); format: in vivo, Wistar rats
# [2] = under similar conditions; Burri et al. (2011); cited from earlier work
smiles,measurement,setting,value
"CC1=C(/C=C/C(C)=C/C=C/C(C)=C/C=C/C=C(C)/C=C/C=C(C)/C=C/C2=C(C)CC(O)CC2(C)C)C(C)(C)CCC1 (stereo not drawn) [beta-cryptoxanthin, beta,beta-caroten-3-ol]",Anti-osteoporotic activity,[1],significant anti-osteoporotic activity
same,Bioavailability relative to beta-carotene,[2],~7 fold
